Data from US5395947A, “Platinum(II) complex and processes for preparing the same” (Sunkyong Industries, Ltd., priority 1991, dated 1995).

Legend:
[1] = system: murine leukemia L1210 cells; experiment: Growth inhibition test on cultured murine leukemia L1210 cells; format: cell-based; details: 48 hours, 37° C., Trypan blue viability
Summary of the method: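 Read-out is Trypan blue (0.17%) viability versus compound-free controls. Cells, 1×10^5, were cultured 48 h at 37° C under 5% CO2 in RPMI 1640/10% FCS containing various compound concentrations.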

murine leukemia L1210 = experiment: Antitumor activity test on murine leukemia L1210 in vivo; design: species or system male BDF1 mice; details: days 1, 5, 9
Summary of the method: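 Male BDF1 mice (6 weeks, 21±3 g; n=7) received 1×10^6 leukemia cells into the peritoneum on day 0, then test compound suspended or dissolved in 0.5% CMC i.p. on days 1, 5, 9. Activity expressed as T/C %, mean survival treated versus 0.5% CMC-injected controls.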

[2] = Test for water solubility; format: physicochemical; details: water
Source text: 3. Test for water solubility
A standard plot of UV absorbance(220 nm) vs. concentration was made; and employed to determine water-solubility.
The mixture was then passed through a 0.45 micron disposable membrane filter before dilution and UV measurement.

ICR mice = experiment: Acute toxicity test; format: in vivo; design: Lethality: unit not given here; details: for Lethality: 10080 min
Procedure: 7-week-old ICR mice(male: 34±2 g; female: 31±2 g) were fed with solid food and water under the condition of 23±1° C. temperature and 65±5% humidity before the test.
Each treatment group consisted of 6 mice. The test compounds were administered intraperitoneally.
For 7 days after the administration, the appearance and the fate of the tested animals were recorded. The dead animals were subjected to autopsy and their visible pathological changes were observed. Their viscerals were stored in 10% formalin solution.

## CC1(C)OC2C[NH2+][Pt-2]3([NH2+]CC2O1)[O]C(=O)C1(CCC1)C(=O)[O]3 [Example 26, cis-cyclobutane-1,1-dicarboxylato[(4R,5R)-4,5-bis(aminomethyl)-2,2-dimethyl-1,3-dioxolane]platinum(II)]
[1]
  IC50 (concentration required for 50% inhibition of growth): 0.65 µg/mL
Murine leukemia L1210; 6.2 mg/kg i.p.
  T/C (%): 124%
Murine leukemia L1210; 12.5 mg/kg i.p.
  T/C (%): 170%
Murine leukemia L1210; 25 mg/kg i.p.
  T/C (%): 217%
Murine leukemia L1210; 50 mg/kg i.p.
  T/C (%): 283%
Murine leukemia L1210; 100 mg/kg i.p.
  T/C (%): 317%
[2]
  Solubility in water: 2000 µg/mL
ICR mice; female, 160 mg/kg i.p.
  Number of dead mice for 7 days: 0/6
  Number of dead mice, 1st day: 0/6
ICR mice; female, 208 mg/kg i.p.
  Number of dead mice for 7 days: 0/6
  Number of dead mice, 1st day: 0/6
ICR mice; female, 270 mg/kg i.p.
  Number of dead mice for 7 days: 1/6
  Number of dead mice, 1st day: 0/6
  Number of dead mice, 5th day: 1/6
  Lethality: 16.7
ICR mice; female, 352 mg/kg i.p.
  Number of dead mice for 7 days: 4/6
  Number of dead mice, 1st day: 0/6
  Number of dead mice, 3rd day: 2/6
  Number of dead mice, 4th day: 2/4
  Lethality: 66.7
ICR mice; female, 457 mg/kg i.p.
  Number of dead mice for 7 days: 6/6
  Number of dead mice, 1st day: 0/6
  Number of dead mice, 2nd day: 4/6
  Number of dead mice, 3rd day: 2/2
  Lethality: 100.0
ICR mice; male, 160 mg/kg i.p.
  Number of dead mice for 7 days: 0/6
  Number of dead mice, 1st day: 0/6
ICR mice; male, 208 mg/kg i.p.
  Number of dead mice for 7 days: 1/6
  Number of dead mice, 1st day: 0/6
  Number of dead mice, 3rd day: 1/6
  Lethality: 16.7
ICR mice; male, 270 mg/kg i.p.
  Number of dead mice for 7 days: 2/6
  Number of dead mice, 1st day: 0/6
  Number of dead mice, 4th day: 2/6
  Lethality: 33.3
ICR mice; male, 352 mg/kg i.p.
  Number of dead mice for 7 days: 4/6
  Number of dead mice, 1st day: 0/6
  Number of dead mice, 2nd day: 1/6
  Number of dead mice, 3rd day: 3/5
  Lethality: 66.7
ICR mice; male, 457 mg/kg i.p.
  Number of dead mice for 7 days: 6/6
  Number of dead mice, 1st day: 0/6
  Number of dead mice, 2nd day: 2/6
  Number of dead mice, 3rd day: 4/4
  Lethality: 100.0

## O=C1[O][Pt-2]2([NH2+]CC3OCOC3C[NH2+]2)[O]C(=O)C12CCC2 [Example 20, cis-cyclobutane-1,1-dicarboxylato [(4R,5R)-4,5-bis(aminomethyl)-1,3-dioxolane]platinum (II)]
[1]
  IC50 (concentration required for 50% inhibition of growth): 1.28 µg/mL
Murine leukemia L1210; 6.2 mg/kg i.p.
  T/C (%): 122%
Murine leukemia L1210; 12.5 mg/kg i.p.
  T/C (%): 187%
Murine leukemia L1210; 25 mg/kg i.p.
  T/C (%): 137%
Murine leukemia L1210; 50 mg/kg i.p.
  T/C (%): 193%
Murine leukemia L1210; 100 mg/kg i.p.
  T/C (%): 271%
[2]
  Solubility in water: 3100 µg/mL
ICR mice; female, 94 mg/kg i.p.
  Number of dead mice for 7 days: 0/6
  Number of dead mice, 1st day: 0/6
ICR mice; female, 123 mg/kg i.p.
  Number of dead mice for 7 days: 2/6
  Number of dead mice, 1st day: 0/6
  Number of dead mice, 4th day: 2/6
  Lethality: 33.3
ICR mice; female, 160 mg/kg i.p.
  Number of dead mice for 7 days: 4/6
  Number of dead mice, 1st day: 0/6
  Number of dead mice, 4th day: 2/6
  Number of dead mice, 5th day: 2/4
  Lethality: 66.7
ICR mice; female, 208 mg/kg i.p.
  Number of dead mice for 7 days: 6/6
  Number of dead mice, 1st day: 0/6
  Number of dead mice, 3rd day: 1/6
  Number of dead mice, 4th day: 5/5
  Lethality: 100.0
ICR mice; female, 270 mg/kg i.p.
  Number of dead mice for 7 days: 6/6
  Number of dead mice, 1st day: 0/6
  Number of dead mice, 2nd day: 4/6
  Number of dead mice, 3rd day: 2/2
  Lethality: 100.0
ICR mice; male, 94 mg/kg i.p.
  Number of dead mice for 7 days: 0/6
  Number of dead mice, 1st day: 0/6
ICR mice; male, 123 mg/kg i.p.
  Number of dead mice for 7 days: 2/6
  Number of dead mice, 1st day: 1/6
  Number of dead mice, 5th day: 1/5
  Lethality: 33.3
ICR mice; male, 160 mg/kg i.p.
  Number of dead mice for 7 days: 5/6
  Number of dead mice, 1st day: 0/6
  Number of dead mice, 4th day: 2/6
  Number of dead mice, 5th day: 1/4
  Number of dead mice, 6th day: 2/3
  Lethality: 83.3
ICR mice; male, 208 mg/kg i.p.
  Number of dead mice for 7 days: 6/6
  Number of dead mice, 1st day: 0/6
  Number of dead mice, 4th day: 6/6
  Lethality: 100.0
ICR mice; male, 270 mg/kg i.p.
  Number of dead mice for 7 days: 6/6
  Number of dead mice, 1st day: 0/6
  Number of dead mice, 2nd day: 4/6
  Number of dead mice, 3rd day: 2/2
  Lethality: 100.0
